# Measurements as given in US20070128217A1 (priority 2003, published 2007).
# Experiments:
# [1] = tested on: control sera (pooled serum of ten healthy LUMC hospital workers; commercial negative donor pooled serum from the Dutch bloodbank); type: binding, human
# [2] = tested on: rabbit serum obtained by immunizing a rabbit with the SARS-CoV strain Frankfurt 1; type: binding; design: Binding of a rabbit serum to linear peptides / Binding of a rabbit serum to looped peptides / Rabbit serum linear peptides / Rabbit serum looped peptides / Binding of a rabbit serum to linear peptides of protein N of SARS-CoV Urbani (Rabbit serum linear peptides) / Binding of a rabbit serum to looped/cyclic peptides of protein N of SARS-CoV Urbani (Rabbit serum looped peptides): unit not given here
# [3] = tested on: antibodies in sera from SARS patients (sera 1a, 1b, 2, 6, 37, 62, London, SARS-yellow, SARS-green); type: binding, human; design: Binding of serum 6 to linear peptides of protein X1 of SARS-CoV Urbani / Binding of serum 37 to linear peptides of protein X1 of SARS-CoV Urbani / Binding of serum 6 to looped/cyclic peptide (PEPSCAN-ELISA) / Binding of serum 37 to looped/cyclic peptide (PEPSCAN-ELISA) / Binding of serum 37 to looped/cyclic peptides of protein X1 of SARS-CoV Urbani / Binding of serum 6 to linear peptides of protein X2 / Binding of serum 37 to linear peptides of protein X2 / Binding of serum 37 to looped/cyclic peptides of protein X2 of SARS-CoV Urbani / Binding of serum 6 to linear peptides of protein M of SARS-CoV Urbani / Binding of serum 37 to linear peptides of protein M of SARS-CoV Urbani / Binding of serum 6 to looped/cyclic peptides of protein M of SARS-CoV Urbani / Binding of serum 37 to looped/cyclic peptides of protein M of SARS-CoV Urbani / Binding of serum 6 to linear peptides of protein X3 of SARS-CoV Urbani / Binding of serum 37 to linear peptides of protein X3 of SARS-CoV Urbani / Binding of serum 37 to looped/cyclic peptides of protein X3 of SARS-CoV Urbani / Binding of serum 6 to linear peptides of protein X4 of SARS-CoV Urbani / Binding of serum 37 to linear peptides of protein X4 of SARS-CoV Urbani / Binding of serum 37 to looped/cyclic peptides of protein X4 of SARS-CoV Urbani / Binding of serum 6 to linear peptides of protein X5 of SARS-CoV Urbani / Binding of serum 37 to linear peptides of protein X5 of SARS-CoV Urbani / Binding of serum 37 to looped/cyclic peptides of protein X5 of SARS-CoV Urbani / Binding of serum 6 to linear peptides of protein N of SARS-CoV Urbani / Binding of serum 37 to linear peptides of protein N of SARS-CoV Urbani / Binding of serum 6 to linear peptide (PEPSCAN-ELISA) / Binding of serum 1a to looped/cyclic peptides of protein N of SARS-CoV Urbani / Binding of serum 1b to looped/cyclic peptides of protein N of SARS-CoV Urbani / Binding of serum 2 to looped/cyclic peptides of protein N of SARS-CoV Urbani / Binding of serum 6 to looped/cyclic peptides of protein N of SARS-CoV Urbani / Binding of serum 37 to looped/cyclic peptides of protein N of SARS-CoV Urbani / Binding of serum 62 to looped/cyclic peptides of protein N of SARS-CoV Urbani / Binding of serum London to looped/cyclic peptides of protein N of SARS-CoV Urbani / Binding of serum SARS-green to looped/cyclic peptides of protein N of SARS-CoV Urbani: unit not given here
sequence,measurement,setting,value
GTLIVNSVLLFLAFV,Binding of Control Serum Blood-Bank to Looped peptides,[1],0.7
same,Binding of Control serum Blood-bank to linear peptides,[1],0.7
same,Binding of Control serum LUMC to linear peptides,[1],0.5
same,Binding of Control serum LUMC to looped peptides,[1],0.3
same,Binding of a rabbit serum to linear peptides,[2],0.6
same,Binding of a rabbit serum to looped peptides,[2],0.0
same,Binding of serum 1a to linear peptides of protein E of SARS-CoV Urbani,[3],0.8
same,Binding of serum 1a to looped/cyclic peptides of protein E of SARS-CoV Urbani,[3],0.2
same,Binding of serum 1b to linear peptides of protein E of SARS-CoV Urbani,[3],0.7
same,Binding of serum 1b to looped/cyclic peptides of protein E of SARS-CoV Urbani,[3],0.0
same,Binding of serum 2 to linear peptides of protein E of SARS-CoV Urbani,[3],0.4
same,Binding of serum 2 to looped/cyclic peptides of protein E of SARS-CoV Urbani,[3],0.6
same,Binding of serum 6 to linear peptides of protein E of SARS-CoV Urbani,[3],0.9
same,Binding of serum 6 to looped/cyclic peptides of protein E of SARS-CoV Urbani,[3],0.3
same,Binding of serum 37 to linear peptides of protein E of SARS-CoV Urbani,[3],0.8
same,Binding of serum 37 to looped/cyclic peptides of protein E of SARS-CoV Urbani,[3],0.2
same,Binding of serum 62 to linear peptides of protein E of SARS-CoV Urbani,[3],0.7
same,Binding of serum 62 to looped/cyclic peptides of protein E of SARS-CoV Urbani,[3],0.4
same,Binding of serum London to linear peptides of protein E of SARS-CoV Urbani,[3],0.5
same,Binding of serum London to looped/cyclic peptides of protein E of SARS-CoV Urbani,[3],0.4
same,Binding of serum SARS-green to linear peptides of protein E of SARS-CoV Urbani,[3],0.4
same,Binding of serum SARS-green to looped/cyclic peptides of protein E of SARS-CoV Urbani,[3],0.4
same,Binding of serum SARS-yellow to linear peptides of protein E of SARS-CoV Urbani,[3],0.2
same,Binding of serum SARS-yellow to looped/cyclic peptides of protein E of SARS-CoV Urbani,[3],0.0
IAEILIIIMRTFRIA,Binding of Control Serum Blood-Bank to Looped peptides of the protein X3 of SARS-CoV Urbani,[1],0.8
same,Binding of Control serum Blood-bank to linear peptides of the protein X3 of SARS-CoV Urbani,[1],0.9
same,Binding of Control serum LUMC to linear peptides of the protein X3 of SARS-CoV Urbani,[1],0.5
same,Binding of Control serum LUMC to looped peptides of the protein X3 of SARS-CoV Urbani,[1],0.9
same,Rabbit serum linear peptides,[2],0.3
same,Rabbit serum looped peptides,[2],0.2
same,Binding of serum 1a to linear peptides of protein X3 of SARS-CoV Urbani,[3],0.8
same,Binding of serum 1a to looped/cyclic peptides of protein X3 of SARS-CoV Urbani,[3],0.7
same,Binding of serum 1b to linear peptides of protein X3 of SARS-CoV Urbani,[3],0.5
same,Binding of serum 1b to looped/cyclic peptides of protein X3 of SARS-CoV Urbani,[3],0.3
same,Binding of serum 2 to linear peptides of protein X3 of SARS-CoV Urbani,[3],0.6
same,Binding of serum 2 to looped/cyclic peptides of protein X3 of SARS-CoV Urbani,[3],0.5
same,Binding of serum 6 to linear peptides of protein X3 of SARS-CoV Urbani,[3],0.0
same,Binding of serum 6 to looped/cyclic peptides of protein X3 of SARS-CoV Urbani,[3],0.7
same,Binding of serum 37 to linear peptides of protein X3 of SARS-CoV Urbani,[3],0.6
same,Binding of serum 37 to looped/cyclic peptides of protein X3 of SARS-CoV Urbani,[3],0.4
same,Binding of serum 62 to linear peptides of protein X3 of SARS-CoV Urbani,[3],0.7
same,Binding of serum 62 to looped/cyclic peptides of protein X3 of SARS-CoV Urbani,[3],0.4
same,Binding of serum London to linear peptides of protein X3 of SARS-CoV Urbani,[3],0.7
same,Binding of serum London to looped/cyclic peptides of protein X3 of SARS-CoV Urbani,[3],0.8
same,Binding of serum SARS-green to linear peptides of protein X3 of SARS-CoV Urbani,[3],0.3
same,Binding of serum SARS-green to looped/cyclic peptides of protein X3 of SARS-CoV Urbani,[3],0.2
same,Binding of serum SARS-yellow to linear peptides of protein X3 of SARS-CoV Urbani,[3],0.3
same,Binding of serum SARS-yellow to looped/cyclic peptides of protein X3 of SARS-CoV Urbani,[3],0.6
LIVNSVLLFLAFVVF,Binding of Control Serum Blood-Bank to Looped peptides,[1],0.8
same,Binding of Control serum Blood-bank to linear peptides,[1],0.5
same,Binding of Control serum LUMC to linear peptides,[1],0.3
same,Binding of Control serum LUMC to looped peptides,[1],0.8
same,Binding of a rabbit serum to linear peptides,[2],0.5
same,Binding of a rabbit serum to looped peptides,[2],0.3
same,Binding of serum 1a to linear peptides of protein E of SARS-CoV Urbani,[3],0.8
same,Binding of serum 1a to looped/cyclic peptides of protein E of SARS-CoV Urbani,[3],0.5
same,Binding of serum 1b to linear peptides of protein E of SARS-CoV Urbani,[3],0.6
same,Binding of serum 1b to looped/cyclic peptides of protein E of SARS-CoV Urbani,[3],0.4
same,Binding of serum 2 to linear peptides of protein E of SARS-CoV Urbani,[3],0.4
same,Binding of serum 2 to looped/cyclic peptides of protein E of SARS-CoV Urbani,[3],0.5
same,Binding of serum 6 to linear peptides of protein E of SARS-CoV Urbani,[3],0.7
same,Binding of serum 6 to looped/cyclic peptides of protein E of SARS-CoV Urbani,[3],0.4
same,Binding of serum 37 to linear peptides of protein E of SARS-CoV Urbani,[3],0.6
same,Binding of serum 37 to looped/cyclic peptides of protein E of SARS-CoV Urbani,[3],0.5
same,Binding of serum 62 to linear peptides of protein E of SARS-CoV Urbani,[3],0.6
same,Binding of serum 62 to looped/cyclic peptides of protein E of SARS-CoV Urbani,[3],0.6
same,Binding of serum London to linear peptides of protein E of SARS-CoV Urbani,[3],0.4
same,Binding of serum London to looped/cyclic peptides of protein E of SARS-CoV Urbani,[3],0.3
same,Binding of serum SARS-green to linear peptides of protein E of SARS-CoV Urbani,[3],0.4
same,Binding of serum SARS-green to looped/cyclic peptides of protein E of SARS-CoV Urbani,[3],0.2
same,Binding of serum SARS-yellow to linear peptides of protein E of SARS-CoV Urbani,[3],0.3
same,Binding of serum SARS-yellow to looped/cyclic peptides of protein E of SARS-CoV Urbani,[3],0.5
